Experimental data taken from the kinase profiling compilation of Christmann-Franck et al. (2016).

Key:
Test in all cases: radiometric filter-binding kinase assay, Kinase HotSpot
Conditions in all cases: compound 0.5 µM; ATP 10 µM
PRKD2 (human) = PRKD2 (human) (UniProt Q9BZL6)
AURKA (human) = AURKA (human) (UniProt O14965)
AXL (human) = AXL (human) (UniProt P30530)
MAP3K3 (human) = MAP3K3 (human) (UniProt Q99759)
CSNK2A1 (human) = CSNK2A1 (human) (UniProt P68400)
GSK3A (human) = GSK3A (human) (UniProt P49840)
GSK3A (human), sequence (P49840 whole entry, looked up): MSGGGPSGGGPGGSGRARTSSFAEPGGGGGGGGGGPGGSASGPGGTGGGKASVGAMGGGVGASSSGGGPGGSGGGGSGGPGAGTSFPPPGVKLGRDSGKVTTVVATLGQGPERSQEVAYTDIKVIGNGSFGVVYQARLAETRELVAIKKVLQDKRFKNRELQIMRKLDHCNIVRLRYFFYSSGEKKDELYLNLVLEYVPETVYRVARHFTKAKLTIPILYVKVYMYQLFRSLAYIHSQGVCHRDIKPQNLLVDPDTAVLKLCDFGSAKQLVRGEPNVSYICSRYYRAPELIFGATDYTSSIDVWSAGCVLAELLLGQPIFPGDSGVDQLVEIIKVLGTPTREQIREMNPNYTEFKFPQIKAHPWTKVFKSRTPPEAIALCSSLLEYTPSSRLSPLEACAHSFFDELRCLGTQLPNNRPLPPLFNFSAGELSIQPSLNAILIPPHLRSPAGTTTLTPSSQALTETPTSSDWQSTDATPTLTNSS

MYLK (human) = MYLK (human) (UniProt Q15746)
SRC (human) = SRC (human) (UniProt P12931)
MARK4 (human) = MARK4 (human) (UniProt Q96L34)
STK17A (human) = STK17A (human) (UniProt Q9UEE5)
TGFBR1 (human) = TGFBR1 (human) (UniProt P36897)
SLK (human) = SLK (human) (UniProt Q9H2G2)
SLK (human), sequence (Q9H2G2 whole entry, looked up): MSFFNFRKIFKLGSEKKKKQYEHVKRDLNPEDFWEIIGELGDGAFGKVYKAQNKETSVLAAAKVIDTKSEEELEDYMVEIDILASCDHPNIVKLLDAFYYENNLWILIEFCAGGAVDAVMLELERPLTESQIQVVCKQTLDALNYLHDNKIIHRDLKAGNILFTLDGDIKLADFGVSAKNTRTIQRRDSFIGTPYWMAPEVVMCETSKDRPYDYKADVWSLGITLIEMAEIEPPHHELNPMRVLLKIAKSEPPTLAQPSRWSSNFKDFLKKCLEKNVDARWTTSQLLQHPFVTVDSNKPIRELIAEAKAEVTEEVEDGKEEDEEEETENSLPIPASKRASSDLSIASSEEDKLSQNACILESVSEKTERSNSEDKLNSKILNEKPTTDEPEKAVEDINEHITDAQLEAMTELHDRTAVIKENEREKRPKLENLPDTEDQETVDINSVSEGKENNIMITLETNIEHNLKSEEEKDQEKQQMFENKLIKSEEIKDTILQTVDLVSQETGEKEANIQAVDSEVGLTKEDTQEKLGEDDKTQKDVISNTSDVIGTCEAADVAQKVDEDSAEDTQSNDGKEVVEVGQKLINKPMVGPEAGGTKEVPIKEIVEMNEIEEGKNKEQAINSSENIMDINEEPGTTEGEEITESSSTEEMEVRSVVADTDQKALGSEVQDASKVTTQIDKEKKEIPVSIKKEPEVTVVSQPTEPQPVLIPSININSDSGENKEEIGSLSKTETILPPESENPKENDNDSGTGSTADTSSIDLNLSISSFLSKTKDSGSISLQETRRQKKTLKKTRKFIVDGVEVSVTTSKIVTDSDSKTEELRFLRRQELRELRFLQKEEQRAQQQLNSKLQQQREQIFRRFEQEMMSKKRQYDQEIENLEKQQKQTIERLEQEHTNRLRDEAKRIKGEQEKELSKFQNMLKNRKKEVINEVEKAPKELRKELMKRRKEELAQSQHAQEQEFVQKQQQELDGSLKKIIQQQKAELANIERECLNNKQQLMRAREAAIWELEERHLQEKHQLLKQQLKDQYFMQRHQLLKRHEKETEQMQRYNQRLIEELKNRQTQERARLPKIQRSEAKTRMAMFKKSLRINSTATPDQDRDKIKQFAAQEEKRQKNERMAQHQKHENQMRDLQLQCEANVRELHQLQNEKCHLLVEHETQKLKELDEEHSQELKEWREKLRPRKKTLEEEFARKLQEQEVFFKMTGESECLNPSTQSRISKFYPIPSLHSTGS

TEC (human) = TEC (human) (UniProt P42680)
CSNK1A1 (human) = CSNK1A1 (human) (UniProt P48729)
CDK9 CCNT1 (human) = CDK9 CCNT1 (human) (UniProt P50750+O60563)
RIPK2 (human) = RIPK2 (human) (UniProt O43353)
CAMKK2 (human) = CAMKK2 (human) (UniProt Q96RR4)
ZAP70 (human) = ZAP70 (human) (UniProt P43403)
SYK (human) = SYK (human) (UniProt P43405)
TSSK2 (human) = TSSK2 (human) (UniProt Q96PF2)
TSSK2 (human), sequence (Q96PF2 whole entry, looked up): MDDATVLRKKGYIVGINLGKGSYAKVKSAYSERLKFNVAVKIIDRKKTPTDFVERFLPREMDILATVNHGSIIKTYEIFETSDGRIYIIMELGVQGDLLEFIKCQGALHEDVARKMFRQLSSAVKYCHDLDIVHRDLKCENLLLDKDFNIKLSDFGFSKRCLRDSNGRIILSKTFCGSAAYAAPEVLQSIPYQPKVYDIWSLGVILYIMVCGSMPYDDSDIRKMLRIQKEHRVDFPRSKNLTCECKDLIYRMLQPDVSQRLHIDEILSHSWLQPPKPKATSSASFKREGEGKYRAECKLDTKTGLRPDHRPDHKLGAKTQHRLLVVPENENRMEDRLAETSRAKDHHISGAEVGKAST

ACVR1B (human) = ACVR1B (human) (UniProt P36896)
CDC42BPA (human) = CDC42BPA (human) (UniProt Q5VT25)
MARK3 (human) = MARK3 (human) (UniProt P27448)
PRKACA (human) = PRKACA (human) (UniProt P17612)
MAPK12 (human) = MAPK12 (human) (UniProt P53778)
PLK2 (human) = PLK2 (human) (UniProt Q9NYY3)
ROCK2 (human) = ROCK2 (human) (UniProt O75116)
CSNK1G3 (human) = CSNK1G3 (human) (UniProt Q9Y6M4)
MAP4K2 (human) = MAP4K2 (human) (UniProt Q12851)
[1] = target: TYK2 JH1 catalytic (human) (UniProt P29597)
TYK2 JH1 catalytic (human), sequence (P29597 whole entry, looked up): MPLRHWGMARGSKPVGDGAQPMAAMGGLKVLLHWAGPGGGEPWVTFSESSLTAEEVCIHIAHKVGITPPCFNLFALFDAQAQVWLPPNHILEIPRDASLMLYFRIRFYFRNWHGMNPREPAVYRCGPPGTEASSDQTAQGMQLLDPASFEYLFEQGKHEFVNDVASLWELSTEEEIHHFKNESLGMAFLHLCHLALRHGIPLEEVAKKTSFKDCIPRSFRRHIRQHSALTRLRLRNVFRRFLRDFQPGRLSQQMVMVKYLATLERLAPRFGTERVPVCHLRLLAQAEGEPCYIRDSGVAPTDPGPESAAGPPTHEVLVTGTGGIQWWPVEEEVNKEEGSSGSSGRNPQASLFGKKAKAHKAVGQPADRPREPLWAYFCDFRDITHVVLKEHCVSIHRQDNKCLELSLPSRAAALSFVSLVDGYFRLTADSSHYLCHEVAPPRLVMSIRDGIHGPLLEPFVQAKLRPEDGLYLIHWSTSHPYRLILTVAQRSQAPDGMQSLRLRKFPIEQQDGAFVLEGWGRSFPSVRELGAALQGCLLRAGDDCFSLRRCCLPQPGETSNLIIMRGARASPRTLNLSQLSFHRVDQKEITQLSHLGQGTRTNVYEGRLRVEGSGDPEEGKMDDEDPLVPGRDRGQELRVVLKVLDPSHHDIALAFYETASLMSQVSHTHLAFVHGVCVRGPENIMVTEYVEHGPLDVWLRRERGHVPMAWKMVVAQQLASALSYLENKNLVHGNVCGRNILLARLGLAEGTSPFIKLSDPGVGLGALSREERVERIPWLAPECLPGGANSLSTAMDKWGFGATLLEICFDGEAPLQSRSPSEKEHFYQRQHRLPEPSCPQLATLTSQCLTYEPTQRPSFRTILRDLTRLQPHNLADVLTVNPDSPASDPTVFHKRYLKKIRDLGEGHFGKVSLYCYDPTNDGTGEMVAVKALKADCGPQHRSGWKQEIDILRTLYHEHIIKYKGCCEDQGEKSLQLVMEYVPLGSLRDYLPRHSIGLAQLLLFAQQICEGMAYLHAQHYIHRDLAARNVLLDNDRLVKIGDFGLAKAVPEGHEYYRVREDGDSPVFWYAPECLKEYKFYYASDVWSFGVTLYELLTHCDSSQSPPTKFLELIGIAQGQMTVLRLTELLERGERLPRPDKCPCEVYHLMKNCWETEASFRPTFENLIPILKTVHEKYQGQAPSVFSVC

PAK6 (human) = PAK6 (human) (UniProt Q9NQU5)
MAPK14 (human) = MAPK14 (human) (UniProt Q16539)
FGFR3 (human) = FGFR3 (human) (UniProt P22607)
BTK (human) = BTK (human) (UniProt Q06187)
EPHA5 (human) = EPHA5 (human) (UniProt P54756)
EPHB2 (human) = EPHB2 (human) (UniProt P29323)
PTK2B (human) = PTK2B (human) (UniProt Q14289)
AKT1 (human) = AKT1 (human) (UniProt P31749)
AKT1 (human), sequence (P31749 whole entry, looked up): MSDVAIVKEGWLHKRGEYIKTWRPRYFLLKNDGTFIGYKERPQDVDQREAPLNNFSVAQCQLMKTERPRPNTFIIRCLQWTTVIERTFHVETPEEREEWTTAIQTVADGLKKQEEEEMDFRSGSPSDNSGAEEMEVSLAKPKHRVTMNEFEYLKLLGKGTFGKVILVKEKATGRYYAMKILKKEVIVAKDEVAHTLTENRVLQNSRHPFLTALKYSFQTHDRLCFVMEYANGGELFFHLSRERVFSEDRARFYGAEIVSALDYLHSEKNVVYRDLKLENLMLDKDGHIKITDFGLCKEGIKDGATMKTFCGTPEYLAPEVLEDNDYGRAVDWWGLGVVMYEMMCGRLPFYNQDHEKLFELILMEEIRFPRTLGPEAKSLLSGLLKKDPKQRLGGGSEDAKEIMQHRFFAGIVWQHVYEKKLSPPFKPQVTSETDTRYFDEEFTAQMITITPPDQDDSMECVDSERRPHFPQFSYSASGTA

[2] = target: JAK1 JH1 catalytic (human) (UniProt P23458)
NEK4 (human) = NEK4 (human) (UniProt P51957)
NEK4 (human), sequence (P51957 whole entry, looked up): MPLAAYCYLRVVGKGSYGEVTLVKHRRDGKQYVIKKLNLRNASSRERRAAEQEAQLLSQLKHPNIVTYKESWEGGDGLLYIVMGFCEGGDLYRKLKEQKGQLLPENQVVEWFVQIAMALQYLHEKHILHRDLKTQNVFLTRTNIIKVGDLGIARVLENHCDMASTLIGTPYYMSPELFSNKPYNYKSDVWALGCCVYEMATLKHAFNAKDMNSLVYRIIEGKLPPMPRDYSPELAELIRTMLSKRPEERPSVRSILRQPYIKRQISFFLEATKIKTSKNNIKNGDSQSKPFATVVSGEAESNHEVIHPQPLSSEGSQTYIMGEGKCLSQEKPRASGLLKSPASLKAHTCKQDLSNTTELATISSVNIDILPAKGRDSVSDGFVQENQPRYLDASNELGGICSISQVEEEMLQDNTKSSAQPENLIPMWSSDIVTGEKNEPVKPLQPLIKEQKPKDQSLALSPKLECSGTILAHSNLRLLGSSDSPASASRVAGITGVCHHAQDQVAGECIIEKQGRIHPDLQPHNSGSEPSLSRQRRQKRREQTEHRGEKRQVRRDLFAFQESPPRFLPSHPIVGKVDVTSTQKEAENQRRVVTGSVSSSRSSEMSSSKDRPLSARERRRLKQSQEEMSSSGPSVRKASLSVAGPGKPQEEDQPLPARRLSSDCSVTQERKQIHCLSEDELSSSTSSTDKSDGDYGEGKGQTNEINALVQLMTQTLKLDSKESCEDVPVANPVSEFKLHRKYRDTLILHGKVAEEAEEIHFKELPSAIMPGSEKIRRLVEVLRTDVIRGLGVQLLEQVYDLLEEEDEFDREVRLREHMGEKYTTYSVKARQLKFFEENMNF

RAF1 (human) = RAF1 (human) (UniProt P04049)
STK24 (human) = STK24 (human) (UniProt Q9Y6E0)

AURKA (human), sequence (O14965 whole entry, looked up): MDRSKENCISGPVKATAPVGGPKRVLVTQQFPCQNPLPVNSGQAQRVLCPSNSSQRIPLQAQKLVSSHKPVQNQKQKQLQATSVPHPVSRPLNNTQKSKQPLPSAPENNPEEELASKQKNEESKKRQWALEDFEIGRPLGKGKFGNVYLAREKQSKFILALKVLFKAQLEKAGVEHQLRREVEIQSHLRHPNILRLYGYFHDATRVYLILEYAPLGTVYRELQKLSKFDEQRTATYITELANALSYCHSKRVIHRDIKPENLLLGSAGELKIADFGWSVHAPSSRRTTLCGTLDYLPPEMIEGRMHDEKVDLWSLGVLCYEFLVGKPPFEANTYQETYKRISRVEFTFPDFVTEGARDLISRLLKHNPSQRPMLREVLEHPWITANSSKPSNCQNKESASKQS

COc1cc2ncnc(Nc3ccc(Oc4ccccc4)cc3)c2cc1OC
residual activity (PRKD2 (human)): 100% | residual activity (AURKA (human)): 79.2% | residual activity (AXL (human)): 98.2% | residual activity (MAP3K3 (human)): 94.5% | residual activity (CSNK2A1 (human)): 114% | residual activity (GSK3A (human)): 97% | residual activity (MYLK (human)): 105% | residual activity (SRC (human)): 82.8% | residual activity (MARK4 (human)): 105% | residual activity (STK17A (human)): 96.3% | residual activity (TGFBR1 (human)): 97.1% | residual activity (SLK (human)): 88.7% | residual activity (TEC (human)): 43.3% | residual activity (CSNK1A1 (human)): 98.2% | residual activity (CDK9 CCNT1 (human)): 86.7% | residual activity (RIPK2 (human)): 55.5% | residual activity (CAMKK2 (human)): 104% | residual activity (ZAP70 (human)): 97% | residual activity (SYK (human)): 98.6% | residual activity (TSSK2 (human)): 103% | residual activity (ACVR1B (human)): 97.5% | residual activity (CDC42BPA (human)): 95.4% | residual activity (MARK3 (human)): 108% | residual activity (PRKACA (human)): 102% | residual activity (MAPK12 (human)): 105% | residual activity (PLK2 (human)): 104% | residual activity (ROCK2 (human)): 99.3% | residual activity (CSNK1G3 (human)): 99.4% | residual activity (MAP4K2 (human)): 104% | residual activity [1]: 107% | residual activity (PAK6 (human)): 109% | residual activity (MAPK14 (human)): 103% | residual activity (FGFR3 (human)): 87.1% | residual activity (BTK (human)): 38.8% | residual activity (EPHA5 (human)): 85.3% | residual activity (EPHB2 (human)): 99.7% | residual activity (PTK2B (human)): 89% | residual activity (AKT1 (human)): 107% | residual activity [2]: 105% | residual activity (NEK4 (human)): 96.8% | residual activity (RAF1 (human)): 88.9% | residual activity (STK24 (human)): 91.6%

CN(C)CCCn1cc(C2=C(c3c[nH]c4ccccc34)C(=O)NC2=O)c2ccccc21
residual activity (PRKD2 (human)): 78.8% | residual activity (AURKA (human)): 108% | residual activity (AXL (human)): 100% | residual activity (MAP3K3 (human)): 97% | residual activity (CSNK2A1 (human)): 99.5% | residual activity (GSK3A (human)): 11.2% | residual activity (MYLK (human)): 23.2% | residual activity (SRC (human)): 92.6% | residual activity (MARK4 (human)): 66.9% | residual activity (STK17A (human)): 86.9% | residual activity (TGFBR1 (human)): 102% | residual activity (SLK (human)): 45.8% | residual activity (TEC (human)): 116% | residual activity (CSNK1A1 (human)): 96.5% | residual activity (CDK9 CCNT1 (human)): 65.3% | residual activity (RIPK2 (human)): 87.7% | residual activity (CAMKK2 (human)): 59.8% | residual activity (ZAP70 (human)): 93% | residual activity (SYK (human)): 90% | residual activity (TSSK2 (human)): 97.3% | residual activity (ACVR1B (human)): 106% | residual activity (CDC42BPA (human)): 97.1% | residual activity (MARK3 (human)): 72% | residual activity (PRKACA (human)): 72% | residual activity (MAPK12 (human)): 95.9% | residual activity (PLK2 (human)): 97.3% | residual activity (ROCK2 (human)): 113% | residual activity (CSNK1G3 (human)): 96.9% | residual activity (MAP4K2 (human)): 94.2% | residual activity [1]: 79.3% | residual activity (PAK6 (human)): 101% | residual activity (MAPK14 (human)): 90.7% | residual activity (FGFR3 (human)): 87.9% | residual activity (BTK (human)): 93.8% | residual activity (EPHA5 (human)): 92% | residual activity (EPHB2 (human)): 100% | residual activity (PTK2B (human)): 98.5% | residual activity (AKT1 (human)): 93.5% | residual activity [2]: 88.7% | residual activity (NEK4 (human)): 94.3% | residual activity (RAF1 (human)): 118% | residual activity (STK24 (human)): 52.9%
